One compound from paper PMC7614683, “A small molecule PI3Kα activator for cardioprotection and neuroregeneration” (Nature, 2023) can be followed below.

What all share (assay): SelectScreen Adapta
Holding throughout (assay type): biochemical

Test [1] addresses T1, GSG2 (Haspin) (Homo sapiens, UniProt Q8TF76).
T1 sequence (Q8TF76 1-798): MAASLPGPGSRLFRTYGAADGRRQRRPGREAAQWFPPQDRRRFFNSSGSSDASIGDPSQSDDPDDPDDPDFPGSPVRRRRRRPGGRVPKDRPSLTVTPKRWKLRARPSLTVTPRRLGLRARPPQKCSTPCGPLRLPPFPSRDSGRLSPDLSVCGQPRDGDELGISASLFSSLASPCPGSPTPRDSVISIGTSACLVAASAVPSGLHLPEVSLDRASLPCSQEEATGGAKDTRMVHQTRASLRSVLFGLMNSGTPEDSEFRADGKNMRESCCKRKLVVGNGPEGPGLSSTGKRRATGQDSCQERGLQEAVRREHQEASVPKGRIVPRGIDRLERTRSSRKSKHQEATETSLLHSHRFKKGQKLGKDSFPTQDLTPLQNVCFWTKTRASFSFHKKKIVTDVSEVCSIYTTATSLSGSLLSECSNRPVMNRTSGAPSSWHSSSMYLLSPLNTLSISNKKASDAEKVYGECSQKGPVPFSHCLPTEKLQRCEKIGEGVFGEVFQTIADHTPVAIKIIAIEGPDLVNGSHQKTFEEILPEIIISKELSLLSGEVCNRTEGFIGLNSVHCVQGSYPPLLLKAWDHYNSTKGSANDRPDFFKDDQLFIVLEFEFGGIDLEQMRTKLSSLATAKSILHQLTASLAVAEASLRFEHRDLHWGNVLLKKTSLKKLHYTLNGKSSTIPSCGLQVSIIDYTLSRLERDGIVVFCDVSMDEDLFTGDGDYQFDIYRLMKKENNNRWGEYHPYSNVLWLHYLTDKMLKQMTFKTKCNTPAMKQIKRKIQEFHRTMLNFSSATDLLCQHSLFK
On the procedure:
(§1) 133 protein kinases and 7 lipid kinases were counterscreened, with 1938 used at 1 μM, using the Adapta, Lantha and Z-LYTE assays (SelectScreen Kinase Profiling Service; Thermofisher – experimental details of these assays can be found here: https://www.thermofisher.com/uk/en/home/industrial/pharma-biopharma/drug-discovery-development/target-and-lead-identification-and-validation/kinasebiology/kinase-activity-assays.html. The tree represention in KinMap[59] generated courtesy of Cell Signaling Technology, Inc. (www.cellsignal.com). mTORC1 (mTOR/RAPTOR/LST8) protein complex and ATM kinase and substrates were produced as previously described[57],[60]. Screening of 1938 was conducted using SuperSep Phos-Tag 50 μmol/l 100 x 100 x 6.6 mm 17-well (192-18001/199-18011) gels. For ATM assays, 100 nM ATM was incubated for 30 min at 30°C with 5 μM GST-p53 and 1 mM ATP, in the absence or presence of 200 μM 1938 in ATM Kinase Buffer (50 mM HEPES pH 7.5, 100 mM NaCl, 10% glycerol, 2 mM […], 5 mM MgCl2). As a positive control for ATM activation, the same reaction was carried out with 100 nM ATM/5 μM GST-p53/1 mM ATP in the presence of 100 nM Mre11-Rad50-Nbs1 (MRN) complex, a known activator of ATM[61]. For mTORC1 assays, 50 nM mTORC1 complex (mTOR/LST8/RAPTOR) was incubated for 3 h at 30°C with 15 μM 4E-BP1, 10 mM MgCl2 and 250 μM ATP, in the absence or presence of 200 μM 1938. As a ‘positive’ control, a higher concentration (150 nM) of mTORC1 complex (mTOR/LST8/RAPTOR) was incubated for 3 h at 30°C with 15 μM 4E-BP1, 10 mM MgCl2 and 250 μM ATP. Kinase reactions were quenched by addition of SDS-PAGE Loading Buffer (as per manufacturer’s instructions) and freezing at -20°C before being run on the Phos-tag gels at 150 V for 90 min. Gels were then stained using InstantBlue™ Coomassie, and quantified using BioRad Image Lab Software. Kinase assays were carried out in triplicate.

The target in test [2] is T2, NUAK1 (ARK5) (Homo sapiens, UniProt O60285).
T2 sequence (O60285 1-661): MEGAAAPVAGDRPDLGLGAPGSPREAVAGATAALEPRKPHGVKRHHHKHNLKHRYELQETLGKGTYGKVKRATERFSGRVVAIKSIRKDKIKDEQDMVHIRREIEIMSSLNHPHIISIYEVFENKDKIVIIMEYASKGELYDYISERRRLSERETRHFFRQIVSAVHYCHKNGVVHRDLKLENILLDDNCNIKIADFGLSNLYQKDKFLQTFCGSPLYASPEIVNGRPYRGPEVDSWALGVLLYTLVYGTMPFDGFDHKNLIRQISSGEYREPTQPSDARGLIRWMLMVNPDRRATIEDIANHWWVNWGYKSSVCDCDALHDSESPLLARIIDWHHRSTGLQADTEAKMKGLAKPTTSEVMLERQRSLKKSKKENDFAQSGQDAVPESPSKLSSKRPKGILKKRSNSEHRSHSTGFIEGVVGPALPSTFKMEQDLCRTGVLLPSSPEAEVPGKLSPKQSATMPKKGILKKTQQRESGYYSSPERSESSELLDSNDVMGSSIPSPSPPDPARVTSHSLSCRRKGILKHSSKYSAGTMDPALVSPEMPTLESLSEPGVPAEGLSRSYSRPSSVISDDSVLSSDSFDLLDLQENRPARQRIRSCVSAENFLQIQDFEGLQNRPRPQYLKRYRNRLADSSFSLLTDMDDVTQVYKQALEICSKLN
As to the method: as §1

Test [3] deals with CDK7/cyclin H/MNAT1 (Homo sapiens, UniProt P50613). On the procedure:
as §1

In test [4] the target is PIK3CD/PIK3R1 (p110 delta/p85 alpha) (Homo sapiens, UniProt O00329). On the procedure:
as §1

Test [5] deals with PIK3C3 (hVPS34) (Homo sapiens, UniProt Q8NEB9). On the procedure: as §1
The target of test [6] is CDK9/cyclin T1 (Homo sapiens, UniProt P50750). On the procedure:
as §1

Test [7] concerns the target PIK3CG (p110 gamma) (Homo sapiens, UniProt P48736). As to the method: as §1

Where two headings read alike, the source gives them in different places.

PIK3CD/PIK3R1 (p110 delta/p85 alpha), sequence (O00329 whole entry): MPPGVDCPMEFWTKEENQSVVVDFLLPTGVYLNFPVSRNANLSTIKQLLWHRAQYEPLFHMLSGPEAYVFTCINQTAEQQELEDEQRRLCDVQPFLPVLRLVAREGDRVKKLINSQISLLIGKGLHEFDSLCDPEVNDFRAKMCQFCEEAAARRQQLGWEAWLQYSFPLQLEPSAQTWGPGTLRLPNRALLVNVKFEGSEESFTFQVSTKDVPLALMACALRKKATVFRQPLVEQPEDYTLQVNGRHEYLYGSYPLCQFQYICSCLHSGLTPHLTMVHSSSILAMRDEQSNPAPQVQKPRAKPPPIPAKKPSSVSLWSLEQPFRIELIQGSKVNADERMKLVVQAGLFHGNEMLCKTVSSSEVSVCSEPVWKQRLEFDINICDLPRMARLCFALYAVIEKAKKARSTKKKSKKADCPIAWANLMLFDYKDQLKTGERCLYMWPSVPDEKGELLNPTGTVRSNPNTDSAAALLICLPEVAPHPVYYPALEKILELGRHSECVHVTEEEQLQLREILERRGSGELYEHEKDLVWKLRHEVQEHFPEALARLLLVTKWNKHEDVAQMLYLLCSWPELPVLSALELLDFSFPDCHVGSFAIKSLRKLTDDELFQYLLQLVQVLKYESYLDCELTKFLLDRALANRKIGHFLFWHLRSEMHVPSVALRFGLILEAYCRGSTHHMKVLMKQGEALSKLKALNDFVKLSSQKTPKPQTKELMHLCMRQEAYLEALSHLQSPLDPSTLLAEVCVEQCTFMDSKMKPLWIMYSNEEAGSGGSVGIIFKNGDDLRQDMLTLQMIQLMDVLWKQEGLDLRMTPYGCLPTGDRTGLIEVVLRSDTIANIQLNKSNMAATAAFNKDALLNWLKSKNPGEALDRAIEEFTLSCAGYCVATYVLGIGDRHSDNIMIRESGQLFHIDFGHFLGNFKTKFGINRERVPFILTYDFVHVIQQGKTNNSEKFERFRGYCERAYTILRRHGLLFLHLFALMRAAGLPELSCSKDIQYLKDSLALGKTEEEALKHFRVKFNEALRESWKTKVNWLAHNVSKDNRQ
PIK3CD/PIK3R1 (p110 delta/p85 alpha), sequence (P27986 whole entry partner): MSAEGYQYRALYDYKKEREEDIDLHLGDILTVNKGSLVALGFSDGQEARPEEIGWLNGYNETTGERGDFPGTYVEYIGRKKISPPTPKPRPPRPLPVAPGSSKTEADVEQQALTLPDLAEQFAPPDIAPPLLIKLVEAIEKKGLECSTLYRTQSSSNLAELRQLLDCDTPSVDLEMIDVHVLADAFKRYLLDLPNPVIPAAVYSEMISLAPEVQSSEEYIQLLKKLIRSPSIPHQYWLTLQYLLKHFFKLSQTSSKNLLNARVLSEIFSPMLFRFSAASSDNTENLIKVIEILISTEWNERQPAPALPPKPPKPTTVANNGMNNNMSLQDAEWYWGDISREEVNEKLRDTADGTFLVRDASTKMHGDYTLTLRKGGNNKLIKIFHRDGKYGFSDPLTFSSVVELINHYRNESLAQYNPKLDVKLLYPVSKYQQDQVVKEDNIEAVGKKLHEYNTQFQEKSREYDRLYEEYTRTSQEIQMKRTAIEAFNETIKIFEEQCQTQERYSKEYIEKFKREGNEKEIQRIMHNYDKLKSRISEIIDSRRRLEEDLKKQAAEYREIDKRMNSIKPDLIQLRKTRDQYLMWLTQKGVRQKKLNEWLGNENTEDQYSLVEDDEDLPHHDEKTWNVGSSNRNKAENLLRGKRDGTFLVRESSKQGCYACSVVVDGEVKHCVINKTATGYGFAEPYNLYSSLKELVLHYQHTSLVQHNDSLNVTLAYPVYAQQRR
CDK9/cyclin T1, sequence (P50750 whole entry): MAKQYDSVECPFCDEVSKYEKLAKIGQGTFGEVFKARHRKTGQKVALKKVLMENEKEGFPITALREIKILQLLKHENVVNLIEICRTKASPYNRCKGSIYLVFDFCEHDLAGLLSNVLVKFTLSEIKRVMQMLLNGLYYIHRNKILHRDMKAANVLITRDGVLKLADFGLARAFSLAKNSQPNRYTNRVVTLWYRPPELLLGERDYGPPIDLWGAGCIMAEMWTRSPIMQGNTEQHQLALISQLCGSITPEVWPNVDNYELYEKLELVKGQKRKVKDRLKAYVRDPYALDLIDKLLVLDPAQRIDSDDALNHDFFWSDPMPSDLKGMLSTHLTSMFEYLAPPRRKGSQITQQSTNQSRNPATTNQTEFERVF
CDK9/cyclin T1, sequence (O60563 whole entry partner): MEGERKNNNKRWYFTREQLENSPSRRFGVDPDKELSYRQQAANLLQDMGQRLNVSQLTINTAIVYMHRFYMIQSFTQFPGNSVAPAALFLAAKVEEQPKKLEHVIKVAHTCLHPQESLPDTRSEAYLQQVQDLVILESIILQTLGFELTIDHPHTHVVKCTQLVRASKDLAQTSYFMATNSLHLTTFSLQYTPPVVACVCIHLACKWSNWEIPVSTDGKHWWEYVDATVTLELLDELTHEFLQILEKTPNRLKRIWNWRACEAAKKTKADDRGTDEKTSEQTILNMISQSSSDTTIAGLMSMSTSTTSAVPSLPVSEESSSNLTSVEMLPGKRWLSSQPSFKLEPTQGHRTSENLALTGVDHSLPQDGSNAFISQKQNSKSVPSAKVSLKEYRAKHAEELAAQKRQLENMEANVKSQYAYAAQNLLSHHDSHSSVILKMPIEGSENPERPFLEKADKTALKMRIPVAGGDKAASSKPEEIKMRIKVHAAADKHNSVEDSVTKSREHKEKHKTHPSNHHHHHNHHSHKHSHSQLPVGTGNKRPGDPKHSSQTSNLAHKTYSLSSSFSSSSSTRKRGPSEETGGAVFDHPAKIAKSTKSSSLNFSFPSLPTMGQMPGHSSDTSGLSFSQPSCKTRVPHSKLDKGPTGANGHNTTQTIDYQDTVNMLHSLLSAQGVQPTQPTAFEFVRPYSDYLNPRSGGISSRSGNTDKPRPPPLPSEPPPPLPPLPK
PIK3CG (p110 gamma), sequence (P48736 whole entry): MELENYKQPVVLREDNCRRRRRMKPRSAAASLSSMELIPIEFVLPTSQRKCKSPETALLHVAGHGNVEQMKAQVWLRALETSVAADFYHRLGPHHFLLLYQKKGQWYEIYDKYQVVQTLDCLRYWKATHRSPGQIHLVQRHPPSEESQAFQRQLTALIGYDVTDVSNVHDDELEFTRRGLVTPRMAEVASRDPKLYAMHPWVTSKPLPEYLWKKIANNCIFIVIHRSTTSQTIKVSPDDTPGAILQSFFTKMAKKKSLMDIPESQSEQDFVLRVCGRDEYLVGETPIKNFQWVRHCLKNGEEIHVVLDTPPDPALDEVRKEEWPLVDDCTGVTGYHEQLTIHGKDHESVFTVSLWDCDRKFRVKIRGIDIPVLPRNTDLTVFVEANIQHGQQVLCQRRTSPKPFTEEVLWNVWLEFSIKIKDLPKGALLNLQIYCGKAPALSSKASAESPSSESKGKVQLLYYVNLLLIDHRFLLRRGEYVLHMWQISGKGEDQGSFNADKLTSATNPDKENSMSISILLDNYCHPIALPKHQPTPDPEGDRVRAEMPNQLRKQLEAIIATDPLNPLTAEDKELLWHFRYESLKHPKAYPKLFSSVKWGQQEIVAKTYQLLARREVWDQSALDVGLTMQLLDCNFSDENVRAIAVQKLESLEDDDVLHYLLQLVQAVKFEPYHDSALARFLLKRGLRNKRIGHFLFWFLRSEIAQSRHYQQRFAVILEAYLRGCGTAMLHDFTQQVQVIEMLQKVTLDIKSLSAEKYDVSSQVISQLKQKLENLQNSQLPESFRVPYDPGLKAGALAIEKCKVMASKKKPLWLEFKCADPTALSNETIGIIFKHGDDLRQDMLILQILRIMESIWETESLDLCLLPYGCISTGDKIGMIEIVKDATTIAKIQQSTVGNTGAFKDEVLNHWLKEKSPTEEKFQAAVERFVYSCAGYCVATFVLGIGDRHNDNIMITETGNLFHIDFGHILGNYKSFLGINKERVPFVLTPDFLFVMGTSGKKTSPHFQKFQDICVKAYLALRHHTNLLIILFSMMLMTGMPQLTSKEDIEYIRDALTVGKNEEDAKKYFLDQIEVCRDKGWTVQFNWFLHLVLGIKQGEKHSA
CDK7/cyclin H/MNAT1, sequence (P50613 whole entry): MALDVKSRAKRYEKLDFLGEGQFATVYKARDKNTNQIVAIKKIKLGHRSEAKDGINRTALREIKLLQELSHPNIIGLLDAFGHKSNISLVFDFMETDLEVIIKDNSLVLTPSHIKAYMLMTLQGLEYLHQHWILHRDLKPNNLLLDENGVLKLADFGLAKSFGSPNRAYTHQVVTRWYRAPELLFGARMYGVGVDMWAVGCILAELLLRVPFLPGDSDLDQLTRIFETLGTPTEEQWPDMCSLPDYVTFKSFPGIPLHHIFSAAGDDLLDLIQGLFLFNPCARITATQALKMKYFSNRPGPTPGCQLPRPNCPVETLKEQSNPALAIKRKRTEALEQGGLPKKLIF
CDK7/cyclin H/MNAT1, sequence (P51946 whole entry partner): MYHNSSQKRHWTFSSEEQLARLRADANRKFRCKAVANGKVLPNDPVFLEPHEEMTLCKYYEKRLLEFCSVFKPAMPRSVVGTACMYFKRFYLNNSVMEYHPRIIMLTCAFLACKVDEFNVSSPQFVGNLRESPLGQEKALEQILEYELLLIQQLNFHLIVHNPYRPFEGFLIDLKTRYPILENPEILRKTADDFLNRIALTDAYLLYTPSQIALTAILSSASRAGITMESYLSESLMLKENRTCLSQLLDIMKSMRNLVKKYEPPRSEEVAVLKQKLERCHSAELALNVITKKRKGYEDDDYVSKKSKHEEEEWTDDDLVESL
CDK7/cyclin H/MNAT1, sequence (P51948 whole entry partner): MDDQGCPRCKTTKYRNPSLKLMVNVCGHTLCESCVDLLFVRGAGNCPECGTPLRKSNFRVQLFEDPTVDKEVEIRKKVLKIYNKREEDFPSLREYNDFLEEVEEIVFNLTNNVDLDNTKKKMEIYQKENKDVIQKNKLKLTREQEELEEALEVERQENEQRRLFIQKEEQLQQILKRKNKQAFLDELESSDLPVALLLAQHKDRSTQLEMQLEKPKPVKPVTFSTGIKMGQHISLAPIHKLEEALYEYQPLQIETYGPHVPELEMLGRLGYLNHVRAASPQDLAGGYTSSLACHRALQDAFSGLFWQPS

As to `CCN1CCN(c2ccc(Nc3cc(Nc4cccc5c4N(C(C)=O)CC5)ccn3)cc2)CC1` [Compound 1938], the inhibition (commonly the change of the read-out against control, counted positive when it falls) at 1 µM in test [1] (read-out: % Inhibition Point 1) is -18%; in test [1] (read-out: % Inhibition Point 2), 2.17%; in test [1] (read-out: % Inhibition mean) it was -8%; in test [2] (read-out: % Inhibition Point 1), 45%; in test [2] (read-out: % Inhibition Point 2) it was 39%; in test [2] (read-out: % Inhibition mean), 42%. The inhibition at 1 µM in test [3] (read-out: % Inhibition Point 1) was -6.51%; in test [3] (read-out: % Inhibition Point 2), 4%; in test [3] (read-out: % Inhibition mean), -1.27%; in test [4] (read-out: % Inhibition Point 1), 11%; in test [4] (read-out: % Inhibition Point 2), -5%; in test [4] (read-out: % Inhibition mean), 2.81%. The inhibition at 1 µM in test [5] (read-out: % Inhibition Point 1) amounted to 3.28%; in test [5] (read-out: % Inhibition Point 2), 7.6%; in test [5] (read-out: % Inhibition mean) it was 5.44%; in test [6] (read-out: % Inhibition Point 1), 10%; in test [6] (read-out: % Inhibition Point 2), 2%; in test [6] (read-out: % Inhibition mean), 6%. The inhibition at 1 µM stood at 4.3% in test [7] (read-out: % Inhibition Point 1), 13% in test [7] (read-out: % Inhibition Point 2) and 8.53% in test [7] (read-out: % Inhibition mean).
